# Source: ChEMBL document CHEMBL5465560, “Selectivity Literature for EUbOPEN Chemogenomic Library” (2024)
# What was measured:
# [1] = target: T1, cGMP-dependent protein kinase 1 (Homo sapiens) (UniProt Q13976); assay: Selectivity interaction (ProQinase) EUB0000171b PRKG1
# T1 sequence (whole entry): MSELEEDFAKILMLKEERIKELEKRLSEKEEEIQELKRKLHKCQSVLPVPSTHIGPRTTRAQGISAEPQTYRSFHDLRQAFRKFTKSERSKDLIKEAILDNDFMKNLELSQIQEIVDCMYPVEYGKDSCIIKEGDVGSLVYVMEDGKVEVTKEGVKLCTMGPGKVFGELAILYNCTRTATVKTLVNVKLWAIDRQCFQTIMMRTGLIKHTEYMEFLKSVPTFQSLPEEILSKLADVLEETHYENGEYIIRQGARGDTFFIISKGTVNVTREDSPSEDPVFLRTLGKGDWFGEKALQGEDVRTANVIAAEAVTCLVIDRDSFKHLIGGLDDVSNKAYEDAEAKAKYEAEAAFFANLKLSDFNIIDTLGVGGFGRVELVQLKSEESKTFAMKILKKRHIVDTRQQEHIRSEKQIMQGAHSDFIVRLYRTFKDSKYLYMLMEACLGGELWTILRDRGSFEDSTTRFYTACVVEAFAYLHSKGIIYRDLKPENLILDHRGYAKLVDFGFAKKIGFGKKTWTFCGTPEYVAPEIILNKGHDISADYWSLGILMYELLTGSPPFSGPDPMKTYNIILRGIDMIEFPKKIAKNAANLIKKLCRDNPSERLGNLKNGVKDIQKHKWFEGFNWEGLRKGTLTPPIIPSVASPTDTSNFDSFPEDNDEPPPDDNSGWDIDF
# [2] = target: Serine/threonine-protein kinase tousled-like 2 (Homo sapiens) (UniProt Q86UE8); assay: Selectivity interaction (KinomeScan (DiscoverX)) EUB0000666a TLK2; conditions: at 10 µM
# [3] = target: Epidermal growth factor receptor (Homo sapiens, UniProt P00533); assay: Selectivity interaction (Kinase panel (33PanQinase(R) Activity Assay)) EUB0000877a EGFR
# [4] = target: Ribosomal protein S6 kinase alpha-2 (Homo sapiens) (UniProt Q15349); assay: Selectivity interaction (Millipore kinase profiler) EUB0000124b RPS6KA2; conditions: at 10 µM
# [5] = target: Cell division control protein 42 homolog (Homo sapiens) (UniProt P60953); assay: Selectivity interaction (Kinase panel (Invitrogen)) EUB0000639a CDC42; conditions: at 200 nM
# [6] = target: Dual specificity protein kinase CLK2 (Homo sapiens, UniProt P49760); assay: Selectivity interaction (ActivX KiNativ screen (kinase selectivity in THP-1 cell lysates)) EUB0000639a CLK2; assay type: subcellular; conditions: lysate
# [7] = target: Mitogen-activated protein kinase 6 (Homo sapiens) (UniProt Q16659); assay: Selectivity interaction (KinomeScan (DiscoverX)) EUB0001049a MAPK6; conditions: at 1 µM
# [8] = target: T2, Histone-lysine N-methyltransferase NSD3 (Homo sapiens) (UniProt Q9BZ95); assay: Selectivity interaction (Methyltransferase screen (radiometric assays, panel of 8 PRMTs, 21 protein lysine methyltransferases, 3 DNA methyltransferases, and one RNA methyltransferase)) EUB0000271b NSD3
# T2 sequence (whole entry): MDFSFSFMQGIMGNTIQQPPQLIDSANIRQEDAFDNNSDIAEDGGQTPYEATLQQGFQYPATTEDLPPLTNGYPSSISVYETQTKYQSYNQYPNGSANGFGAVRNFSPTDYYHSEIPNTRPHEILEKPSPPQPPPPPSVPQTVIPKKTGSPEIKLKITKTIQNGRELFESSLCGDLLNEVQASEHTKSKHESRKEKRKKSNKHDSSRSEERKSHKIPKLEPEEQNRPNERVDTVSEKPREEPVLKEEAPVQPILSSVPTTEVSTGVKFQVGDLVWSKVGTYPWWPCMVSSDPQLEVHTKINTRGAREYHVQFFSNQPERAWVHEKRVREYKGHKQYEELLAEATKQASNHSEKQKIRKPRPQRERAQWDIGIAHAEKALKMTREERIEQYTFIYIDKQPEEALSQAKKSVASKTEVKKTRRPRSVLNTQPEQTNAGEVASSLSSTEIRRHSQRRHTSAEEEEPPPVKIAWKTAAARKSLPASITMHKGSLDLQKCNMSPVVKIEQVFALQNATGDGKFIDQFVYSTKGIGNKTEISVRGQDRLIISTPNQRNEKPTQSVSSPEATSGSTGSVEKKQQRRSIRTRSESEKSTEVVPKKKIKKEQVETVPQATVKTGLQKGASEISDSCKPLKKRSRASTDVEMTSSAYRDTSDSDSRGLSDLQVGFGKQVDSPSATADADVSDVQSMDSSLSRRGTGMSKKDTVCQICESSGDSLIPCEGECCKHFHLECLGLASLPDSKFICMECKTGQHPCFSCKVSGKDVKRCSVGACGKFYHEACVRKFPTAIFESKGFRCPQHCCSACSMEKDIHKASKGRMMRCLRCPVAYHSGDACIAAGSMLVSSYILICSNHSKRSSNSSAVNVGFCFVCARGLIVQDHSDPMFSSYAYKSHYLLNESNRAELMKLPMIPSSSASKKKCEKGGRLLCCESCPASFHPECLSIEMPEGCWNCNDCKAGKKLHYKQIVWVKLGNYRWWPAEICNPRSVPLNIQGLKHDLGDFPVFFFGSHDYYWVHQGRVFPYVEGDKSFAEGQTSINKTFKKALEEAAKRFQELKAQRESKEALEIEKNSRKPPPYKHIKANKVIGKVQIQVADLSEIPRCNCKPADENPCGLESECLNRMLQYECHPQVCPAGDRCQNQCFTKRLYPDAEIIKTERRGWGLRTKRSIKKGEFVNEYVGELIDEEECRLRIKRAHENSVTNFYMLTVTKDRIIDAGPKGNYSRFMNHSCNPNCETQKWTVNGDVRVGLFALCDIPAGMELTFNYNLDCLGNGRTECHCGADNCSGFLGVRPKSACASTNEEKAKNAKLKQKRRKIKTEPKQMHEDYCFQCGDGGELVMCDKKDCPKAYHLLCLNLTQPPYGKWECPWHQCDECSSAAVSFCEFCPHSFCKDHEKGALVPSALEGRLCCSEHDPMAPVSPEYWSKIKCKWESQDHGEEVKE
# [9] = target: Serine/threonine-protein kinase MARK1 (Homo sapiens) (UniProt Q9P0L2); assay: Selectivity interaction (Ambit KINOMEscan and KiNATiv profiling in Jurkat cells) EUB0000090b MARK1; assay type: cell-based; conditions: at 1 µM
# [10] = target: Tyrosine-protein kinase BTK (Homo sapiens, UniProt Q06187); assay: Selectivity interaction (Kinase screening (Nanosyn)) EUB0000604a BTK
# [11] = tested on: Epidermal growth factor receptor (Homo sapiens), P00533 [UNDEFINED MUTATION]; assay: Selectivity interaction (KinomeScan (DiscoverX)) EUB0001619a EGFR; conditions: at 1 µM
# Epidermal growth factor receptor (Homo sapiens), P00533 [UNDEFINED MUTATION], sequence (P00533 whole entry, looked up, change not shown): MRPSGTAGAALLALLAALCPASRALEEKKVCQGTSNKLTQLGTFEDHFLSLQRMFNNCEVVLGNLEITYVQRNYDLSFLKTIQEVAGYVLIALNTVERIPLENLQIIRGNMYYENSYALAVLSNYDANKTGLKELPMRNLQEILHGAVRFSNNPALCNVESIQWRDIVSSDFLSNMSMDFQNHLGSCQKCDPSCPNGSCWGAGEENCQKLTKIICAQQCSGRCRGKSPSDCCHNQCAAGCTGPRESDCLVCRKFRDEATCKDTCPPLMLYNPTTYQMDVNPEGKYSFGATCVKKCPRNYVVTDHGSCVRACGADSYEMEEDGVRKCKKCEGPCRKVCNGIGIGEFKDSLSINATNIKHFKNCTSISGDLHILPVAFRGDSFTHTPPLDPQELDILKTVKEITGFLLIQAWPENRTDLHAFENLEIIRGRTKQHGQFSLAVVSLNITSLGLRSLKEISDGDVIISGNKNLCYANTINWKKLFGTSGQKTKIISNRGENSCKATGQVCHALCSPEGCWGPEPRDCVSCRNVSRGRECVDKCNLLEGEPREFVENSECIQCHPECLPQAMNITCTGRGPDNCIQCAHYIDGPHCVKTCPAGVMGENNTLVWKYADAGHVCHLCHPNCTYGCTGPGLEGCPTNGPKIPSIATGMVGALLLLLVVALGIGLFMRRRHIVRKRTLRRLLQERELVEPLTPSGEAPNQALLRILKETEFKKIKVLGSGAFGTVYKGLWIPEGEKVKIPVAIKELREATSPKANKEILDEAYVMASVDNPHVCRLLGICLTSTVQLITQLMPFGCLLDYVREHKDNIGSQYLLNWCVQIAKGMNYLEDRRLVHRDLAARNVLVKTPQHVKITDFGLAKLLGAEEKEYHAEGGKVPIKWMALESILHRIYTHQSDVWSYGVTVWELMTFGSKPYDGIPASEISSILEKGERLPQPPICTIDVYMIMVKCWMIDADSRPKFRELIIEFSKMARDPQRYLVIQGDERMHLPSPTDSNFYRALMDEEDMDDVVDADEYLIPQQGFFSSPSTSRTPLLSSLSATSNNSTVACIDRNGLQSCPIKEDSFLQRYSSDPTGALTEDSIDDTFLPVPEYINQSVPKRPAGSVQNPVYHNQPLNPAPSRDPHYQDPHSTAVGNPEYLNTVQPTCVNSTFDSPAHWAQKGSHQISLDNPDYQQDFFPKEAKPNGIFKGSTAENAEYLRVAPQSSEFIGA
# Dual specificity protein kinase CLK2, sequence (P49760 whole entry, looked up): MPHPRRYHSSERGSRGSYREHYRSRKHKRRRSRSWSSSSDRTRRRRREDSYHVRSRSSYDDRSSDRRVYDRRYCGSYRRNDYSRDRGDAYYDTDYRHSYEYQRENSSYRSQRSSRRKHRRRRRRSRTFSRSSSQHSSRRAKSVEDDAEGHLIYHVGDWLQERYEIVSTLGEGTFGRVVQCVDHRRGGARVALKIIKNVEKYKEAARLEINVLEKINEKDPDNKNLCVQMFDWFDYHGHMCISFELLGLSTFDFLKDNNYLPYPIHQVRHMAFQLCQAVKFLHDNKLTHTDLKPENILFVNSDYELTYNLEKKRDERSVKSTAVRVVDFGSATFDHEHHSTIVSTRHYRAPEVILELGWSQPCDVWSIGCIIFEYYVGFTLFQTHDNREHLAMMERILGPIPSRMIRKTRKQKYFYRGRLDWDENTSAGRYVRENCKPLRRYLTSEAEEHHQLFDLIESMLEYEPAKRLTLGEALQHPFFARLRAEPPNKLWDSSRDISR
# Serine/threonine-protein kinase tousled-like 2 (Homo sapiens), sequence (Q86UE8 whole entry, looked up): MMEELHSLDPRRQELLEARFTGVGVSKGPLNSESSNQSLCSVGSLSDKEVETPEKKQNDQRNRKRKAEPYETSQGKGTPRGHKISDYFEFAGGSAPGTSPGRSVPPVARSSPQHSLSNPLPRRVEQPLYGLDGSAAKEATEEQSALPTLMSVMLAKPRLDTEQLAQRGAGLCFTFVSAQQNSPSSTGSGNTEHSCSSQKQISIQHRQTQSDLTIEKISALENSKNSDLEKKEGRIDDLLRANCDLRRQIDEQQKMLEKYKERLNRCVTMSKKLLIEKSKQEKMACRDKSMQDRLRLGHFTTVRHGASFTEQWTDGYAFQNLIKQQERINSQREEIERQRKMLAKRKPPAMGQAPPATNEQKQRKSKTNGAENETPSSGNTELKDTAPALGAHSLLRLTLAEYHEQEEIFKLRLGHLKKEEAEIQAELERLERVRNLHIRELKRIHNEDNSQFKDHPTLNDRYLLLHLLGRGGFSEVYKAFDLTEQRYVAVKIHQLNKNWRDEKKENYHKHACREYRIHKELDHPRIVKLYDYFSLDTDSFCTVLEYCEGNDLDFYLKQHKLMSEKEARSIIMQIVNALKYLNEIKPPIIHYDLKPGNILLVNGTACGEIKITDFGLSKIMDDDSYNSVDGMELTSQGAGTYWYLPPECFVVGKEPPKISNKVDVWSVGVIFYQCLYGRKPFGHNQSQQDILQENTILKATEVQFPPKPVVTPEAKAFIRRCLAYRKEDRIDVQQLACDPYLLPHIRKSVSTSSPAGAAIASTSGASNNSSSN
# Serine/threonine-protein kinase MARK1 (Homo sapiens), sequence (Q9P0L2 whole entry, looked up): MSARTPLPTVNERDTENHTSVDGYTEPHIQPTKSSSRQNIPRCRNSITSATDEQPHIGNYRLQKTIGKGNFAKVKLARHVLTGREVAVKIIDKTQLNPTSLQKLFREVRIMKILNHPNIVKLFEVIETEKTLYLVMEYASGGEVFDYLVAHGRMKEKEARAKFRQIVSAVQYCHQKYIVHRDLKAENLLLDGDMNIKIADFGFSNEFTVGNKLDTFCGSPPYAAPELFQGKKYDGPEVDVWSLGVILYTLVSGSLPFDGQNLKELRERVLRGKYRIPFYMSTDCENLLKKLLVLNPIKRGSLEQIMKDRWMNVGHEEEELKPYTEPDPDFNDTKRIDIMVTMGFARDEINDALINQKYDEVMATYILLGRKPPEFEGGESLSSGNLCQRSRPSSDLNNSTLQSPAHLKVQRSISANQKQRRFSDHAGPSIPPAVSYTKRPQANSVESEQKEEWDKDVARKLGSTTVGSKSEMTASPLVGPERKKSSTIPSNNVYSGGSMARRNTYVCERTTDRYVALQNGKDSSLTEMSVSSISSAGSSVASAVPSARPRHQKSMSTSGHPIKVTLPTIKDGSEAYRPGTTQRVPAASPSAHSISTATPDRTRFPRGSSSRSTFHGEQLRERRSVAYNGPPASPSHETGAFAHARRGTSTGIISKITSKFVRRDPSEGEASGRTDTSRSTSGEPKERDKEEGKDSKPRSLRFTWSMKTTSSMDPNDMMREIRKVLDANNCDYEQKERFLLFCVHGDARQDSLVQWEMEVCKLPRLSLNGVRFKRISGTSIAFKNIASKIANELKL
# Ribosomal protein S6 kinase alpha-2 (Homo sapiens), sequence (Q15349 whole entry): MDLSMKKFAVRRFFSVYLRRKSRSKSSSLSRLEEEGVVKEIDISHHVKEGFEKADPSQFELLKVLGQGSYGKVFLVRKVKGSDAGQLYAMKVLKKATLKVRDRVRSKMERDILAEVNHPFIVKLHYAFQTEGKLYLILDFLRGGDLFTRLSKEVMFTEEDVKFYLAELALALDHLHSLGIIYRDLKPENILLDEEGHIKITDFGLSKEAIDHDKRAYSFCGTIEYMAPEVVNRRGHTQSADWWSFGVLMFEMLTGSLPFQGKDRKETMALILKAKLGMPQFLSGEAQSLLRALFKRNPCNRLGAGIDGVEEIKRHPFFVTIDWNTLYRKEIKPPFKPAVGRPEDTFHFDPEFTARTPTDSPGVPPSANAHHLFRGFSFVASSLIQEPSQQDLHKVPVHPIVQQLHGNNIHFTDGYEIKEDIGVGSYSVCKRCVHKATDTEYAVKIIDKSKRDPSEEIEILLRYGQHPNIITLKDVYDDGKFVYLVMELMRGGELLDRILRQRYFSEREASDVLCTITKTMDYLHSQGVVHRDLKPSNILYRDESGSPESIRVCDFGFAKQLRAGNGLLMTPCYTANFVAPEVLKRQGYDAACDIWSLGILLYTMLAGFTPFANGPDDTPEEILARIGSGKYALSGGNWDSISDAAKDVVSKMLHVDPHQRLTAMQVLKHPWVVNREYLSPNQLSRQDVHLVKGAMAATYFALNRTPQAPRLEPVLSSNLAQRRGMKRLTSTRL
# Tyrosine-protein kinase BTK, sequence (Q06187 whole entry): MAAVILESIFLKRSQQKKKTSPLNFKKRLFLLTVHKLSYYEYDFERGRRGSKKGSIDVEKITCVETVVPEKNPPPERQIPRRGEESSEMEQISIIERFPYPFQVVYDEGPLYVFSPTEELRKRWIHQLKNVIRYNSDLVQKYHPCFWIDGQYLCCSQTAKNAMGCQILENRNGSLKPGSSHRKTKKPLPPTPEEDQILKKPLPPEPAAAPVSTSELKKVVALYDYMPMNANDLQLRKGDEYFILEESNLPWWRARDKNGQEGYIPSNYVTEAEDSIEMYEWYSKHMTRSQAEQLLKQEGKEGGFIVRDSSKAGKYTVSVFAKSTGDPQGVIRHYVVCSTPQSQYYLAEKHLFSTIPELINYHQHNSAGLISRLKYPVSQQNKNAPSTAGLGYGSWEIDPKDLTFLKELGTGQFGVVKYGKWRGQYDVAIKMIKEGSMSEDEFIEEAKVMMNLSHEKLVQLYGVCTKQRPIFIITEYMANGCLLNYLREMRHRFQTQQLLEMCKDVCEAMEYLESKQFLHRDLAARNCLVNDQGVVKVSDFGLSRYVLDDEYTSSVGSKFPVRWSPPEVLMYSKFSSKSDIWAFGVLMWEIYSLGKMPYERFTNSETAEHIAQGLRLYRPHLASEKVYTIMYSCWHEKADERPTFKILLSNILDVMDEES
# Cell division control protein 42 homolog (Homo sapiens), sequence (P60953 whole entry, looked up): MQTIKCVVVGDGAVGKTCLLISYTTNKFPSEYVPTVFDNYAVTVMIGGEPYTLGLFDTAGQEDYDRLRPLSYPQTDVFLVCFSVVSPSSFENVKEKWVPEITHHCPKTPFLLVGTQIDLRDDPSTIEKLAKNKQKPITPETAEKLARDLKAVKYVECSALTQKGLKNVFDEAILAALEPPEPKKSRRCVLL
structure (smiles),measurement,setting,value
C=CC(=O)Nc1cccc(C(=O)Nc2ccc(Nc3cc(-c4[nH]c(SC)nc4C)ccn3)cc2)c1,% of control,[1]; at 1 µM,92%
same,% of control,[1]; at 5 µM,87%
O=C(NOC[C@H](O)CO)c1ccc(F)c(F)c1Nc1ccc(I)cc1F,% of control,[2],98%
CCC(=O)N1CC[C@H](Nc2ncnc3c2CN(c2cnc(OC)c(C(F)(F)F)c2)CC3)C1 [LENIOLISIB],IC50,[3],> 10 µM
CC(=O)Nc1cccc(-n2c(=O)n(C3CC3)c(=O)c3c(Nc4ccc(I)cc4F)n(C)c(=O)c(C)c32)c1,% of control,[4],102%
CC[C@@H]1[C@H](F)C(=O)N[C@@H]1COc1nccc2cc(C(N)=O)c(OC)cc12 [ZIMLOVISERTIB],% of inhibition,[5],10.2%
same,% of inhibition,[6]; at 0.01 µM,26.8%
same,% of inhibition,[6]; at 0.04 µM,32.4%
same,% of inhibition,[6]; at 0.2 µM,38.8%
same,% of inhibition,[6]; at 1 µM,14.3%
same,% of inhibition,[6]; at 5 µM,19.9%
COc1cc(Nc2nc(C)cc(-c3cnn4nc(OC)ccc34)n2)cc(C(F)(F)F)c1,% of control,[7],92%
Cc1cc(C)cc([C@@H]2c3cc(C)ccc3NC(=O)CN2C(=O)c2ccc(Br)s2)c1,% of activity,[8]; at 1 µM,99.3%
same,% of activity,[8]; at 10 µM,104%
CN(C)C/C=C/C(=O)Nc1ccc(C(=O)N2CCCC(Nc3ncc(Cl)c(-c4c[nH]c5ccccc45)n3)C2)cc1 (configuration not stated),% of control,[9],100%
Cc1cnc(Nc2ccc(F)cc2Cl)nc1-c1c[nH]c(C(=O)N[C@H](CO)c2cccc(Cl)c2)c1,% of inhibition,[10],5%
N#Cc1cccc(-c2c[nH]c3ncnc(N4CCOCC4)c23)c1,% of control,[11],100%
